Assay results published in BindingDB's records for doi:10.7270/Q2GF0RZ3 (Burnham Center For Chemical Genomics, 2010).

Molecular target: G-protein coupled receptor 55 (Homo sapiens, UniProt Q9Y2T6)
Assay: selective activators of receptor GPR55 – imaging, U2OS cells, beta-arrestin-GFP redistribution, primary screen (AID 1961)

Chain of G-protein coupled receptor 55 (Q9Y2T6 whole entry): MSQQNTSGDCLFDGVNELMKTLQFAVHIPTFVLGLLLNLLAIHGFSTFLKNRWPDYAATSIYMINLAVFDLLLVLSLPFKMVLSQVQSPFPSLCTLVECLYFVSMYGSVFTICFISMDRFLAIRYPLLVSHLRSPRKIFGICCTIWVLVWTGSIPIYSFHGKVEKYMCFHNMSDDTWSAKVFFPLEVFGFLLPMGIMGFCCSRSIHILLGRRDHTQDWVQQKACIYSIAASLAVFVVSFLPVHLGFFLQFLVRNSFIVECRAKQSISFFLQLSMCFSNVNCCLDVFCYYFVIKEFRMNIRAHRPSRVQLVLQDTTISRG

Row | EC50 [µM] | SMILES
1 | 32 | COC1=CC(=Cc2c(-c3ccccc3)[nH]oc2=O)C=C(Cl)C1=O [4-[(Z)-(3-chloro-5-methoxy-4-oxo-1-cyclohexa-2,5-dienylidene)methyl]-3-phenyl-2H-isoxazol-5-one]
2 | 21.3 | C=c1[nH]n(-c2ccc(C(=O)O)cc2)c(=O)c1=Cc1ccc(-c2ccccc2F)o1 [4-((4E)-4-{[5-(2-fluorophenyl)-2-furyl]methylene}-3-methyl-5-oxo-4,5-dihydro-1H-pyrazol-1-yl)benzoic acid]
3 | 0.5 | Cc1ccc(NS(=O)(=O)c2cc([N+](=O)[O-])ccc2N=NCc2sc(N3CCOCC3)nc2-c2ccccc2)c(C)c1 [MLS000408840]
4 | 32 | N#CC1C(=N)OC2=C(CC/C2=C\c2ccccc2)C1c1ccccc1 (configuration not stated) [SMR000176483]
5 | 32 | N#CC1C(=O)NC(c2ccc(-c3cc(Cl)ccc3Cl)o2)N(c2ccccc2)C1=S (configuration not stated) [MLS000592167]
6 | 3.41 | COc1ccc(C2c3sc4nc(C)cc(C)c4c3OC(=N)C2C#N)cc1 (configuration not stated) [2-amino-4-(4-methoxyphenyl)-7,9-dimethyl-4H-pyrano[2',3':4,5]thieno[2,3-b]pyridine-3-carbonitrile]

Row | SMILES | EC50 [µM]
7 | CC(C)CN1C(=O)/C(=N\NC(=O)c2cccc(S(=O)(=O)N3CCCCC3)c2)c2ccccc21 [MLS000417389] | 4.75
